According to patent US10821092B2, “Viscous topical ocular formulations” (Encompass Development, Inc., priority 2014, dated 2020):

What was measured:
rabbit eye = assay: Blink response to surface stimulation in rabbits: onset and duration of anesthesia; type: in vivo, New Zealand White Rabbits; conditions: as shown in the working examples
Description: This rabbit study was performed in order to evaluate various formulations. General guidelines for these studies are attached here as Attachment 1. This guideline defines the screening of six (6) formulations using two (2) different viscosity enhancing agents. The two agents selected were Carboxymethylcellulose (CMC) and Sodium Hyluronate (HA). The specifics of these formulations are described in Attachment 2.
A statistical analysis of the experimental results for both onset of action and the duration of anesthesia is provided below. The means were compiled and statistically compared to the controls in each individual formulation. The significance or non-significance is noted as (S=Significant P value <0.001, NS=Not Significant P Value >0.05). The duration results are summarized here in Table 1.
Six different formulations were tested and the onset and duration of action was evaluated.
The commercially available Tetracaine hydrochloride 0.5% Ophthalmic Solution was used as the control.
New Zealand White Rabbits were obtained from Harlan Sprague Dawley. They were housed in the animal facility at Mercer
Dosing was performed with the experimental formulation in one eye by dropping the formulation into the rabbit eye with the aid of a dropper and the standard marketed product was administered in the contra lateral eye as a control. Multiple experiments were run with the same group of rabbits. […]

[1] = cited from earlier work

CCCCNc1ccc(C(=O)OCCN(C)C)cc1 [tetracaine]
duration of anesthesia after administration to the eye (rabbit eye): up to 55 minutes
onset of anesthesia ([1]; background statement on tetracaine ophthalmic solution): ≤ 30 s
duration of anesthetic properties ([1]; background statement, cataract surgery): 15 to 20 min
